Assay results: patent publication US10111890B2, “9-aminomethyl minocycline compounds and uses thereof” (Paratek Pharmaceuticals, Inc., priority 2016, dated 2018)

Columns and labels:
[1] = test system: ABSSSI known or suspected to be due to Gram-positive pathogens; assay: Phase 3 oral omadacycline vs oral linezolid in ABSSSI: Early Clinical Response 48-72 hours after first dose; format: in vivo, human; details: omadacycline minus linezolid, Wound Infection, mITT
[2] = Phase 3 oral omadacycline vs oral linezolid in ABSSSI: safety (adverse events, TEAEs, vital signs, ECG, laboratory); format: in vivo; details: safety population
Excerpt: An Adverse Event (AE) is any untoward, undesired, or unplanned event in the form of signs, symptoms, disease, or laboratory or physiologic observations occurring in a person given a test article or in a clinical study. […] An AE includes, but is not limited to, the following: any clinically significant worsening of a preexisting condition; an AE occurring from overdose of a test article, whether accidental or intentional; overdose is a dose greater than that specified in the protocol; an AE occurring from abuse (e.g., use for nonclinical reasons) of a test article; and an AE that has been associated with the discontinuation of the use of a test article.
The severity (or intensity) of an AE was classified using the following criteria:
Concerning relatedness, causality (i.e., whether there was a reasonable possibility that test article caused the event) for all AEs and SAEs was assessed.
Safety variables include the incidence rate of AEs, change in vital signs, ECG parameters and laboratory test results obtained during the course of the study. For safety analyses, subjects were analyzed according to the treatment actually received.
Summary tables were provided for all treatment-emergent adverse events (TEAEs). A TEAE is defined as an AE with a start date and time on or after the first dose of test article. […] Additional tabulations provide summaries by SOC and PT of subjects experiencing SAEs, severe TEAEs, TEAEs judged to be related to test article, TEAEs leading to discontinuation of test article, and TEAEs of special interest.
The following variables were analyzed descriptively: Vital signs (systolic and diastolic BP, pulse rate, body temperature, respiratory rate), including change from Screening by visit; Clinically notable vital signs (meeting predefined criteria as specified in the SAP) by visit. Subjects with notable vital signs data were listed.
ECG data (RR interval, PR interval, QRS interval, QTc, QTc Bazett's Correction Formula [QTcB], and QTc Fridericia's Correction Formula [QTcF]) was summarized descriptively at each scheduled evaluation, and for the overall worst post-Screening value. Changes from Screening at each visit that a 12-lead ECG was obtained was also provided. An outlier analysis was conducted based on the worst post-Screening value.
The following variables were analyzed descriptively: Laboratory variables by visit; Change from Screening of laboratory variables by visit; and Clinically notable laboratory values (meeting predefined criteria specified in the SAP) by visit.

## CN(C)c1cc(CNCC(C)(C)C)c(O)c2c1C[C@H]1C[C@H]3[C@H](N(C)C)C(O)=C(C(N)=O)C(=O)[C@@]3(O)C(O)=C1C2=O [Omadacycline, 9-[(2,2-dimethyl-propylamino)-methyl]-minocycline]
[1]; actual type
  Difference (95% CI) in Early Clinical Success rate: 6.3 (−0.3, 13.1)
[1]; as randomized
  Difference (95% CI) in Early Clinical Success rate: 6.1 (−0.6, 12.8)
[2]
  Subjects who died: 0 n (%)
  Subjects with at Least One Adverse Events (AE): 201 (54.6) n (%)
  Subjects with at Least One Drug-Related Serious TEAE: 0 n (%)
  Subjects with at Least One Drug-Related TEAE: 139 (37.8) n (%)
  Subjects with at Least One Serious TEAE: 5 (1.4) n (%)
  Subjects with at Least One Serious TEAE leading to Death: 0 n (%)
  Subjects with at Least One Serious TEAEs leading to premature discontinuation of test article: 3 (0.8) n (%)
  Subjects with at Least One Severe TEAE: 6 (1.6) n (%)
  Subjects with at Least One TEAE Leading to Study Drug Discontinuation: 6 (1.6) n (%)
  Subjects with at Least One TEAE leading to dose interruption: 0 n (%)
  Subjects with at Least One TEAE leading to premature discontinuation of study: 3 (0.8) n (%)
  Subjects with at Least One TEAE leading to premature discontinuation of test article: 6 (1.6) n (%)
  TEAE leading to study drug discontinuation: Cellulitis: 1 (0.3) n (%)
  TEAE leading to study drug discontinuation: Gastrointestinal Disorders (SOC): 1 (0.3) n (%)
  TEAE leading to study drug discontinuation: Haematemesis: 1 (0.3) n (%)
  TEAE leading to study drug discontinuation: Infections And Infestations (SOC): 4 (1.1) n (%)
  TEAE leading to study drug discontinuation: Nausea: 1 (0.3) n (%)
  TEAE leading to study drug discontinuation: Pregnancy: 1 (0.3) n (%)
  TEAE leading to study drug discontinuation: Pregnancy, Puerperium And Perinatal Conditions (SOC): 1 (0.3) n (%)
  TEAE leading to study drug discontinuation: Staphylococcal Bacteraemia: 1 (0.3) n (%)
  TEAE leading to study drug discontinuation: Subcutaneous Abscess: 1 (0.3) n (%)
  TEAE leading to study drug discontinuation: Vomiting: 1 (0.3) n (%)
  TEAE leading to study drug discontinuation: Wound Infection: 1 (0.3) n (%)
  TEAE: Alanine Aminotransferase Increased: 19 (5.2) n (%)
  TEAE: Aspartate Aminotransferase Increased: 17 (4.6) n (%)
  TEAE: Cellulitis: 12 (3.3) n (%)
  TEAE: Headache: 13 (3.5) n (%)
  TEAE: Wound Infection: 22 (6.0) n (%)
  Total Number of AEs: 468
  Total Number of TEAEs: 448
[2]; AE overview
  Subjects with at Least One TEAE: 197 (53.5) n (%)
[2]; all severities
  TEAE: Abdominal Pain Upper: 10 (2.7) n (%)
  TEAE: Diarrhea: 15 (4.1) n (%)
  TEAE: Nausea: 111 (30.2) n (%)
  TEAE: Vomiting: 62 (16.8) n (%)
[2]; highest severity Mild
  Subjects with at Least One TEAE, Mild: 120 (32.6) n (%)
  TEAE: Abdominal Pain Upper, Mild: 9 (2.4) n (%)
  TEAE: Abdominal Pain, Mild: 3 (0.8) n (%)
  TEAE: Diarrhea, Mild: 13 (3.5) n (%)
  TEAE: Gastrointestinal Disorders (SOC), Mild: 105 (28.5) n (%)
  TEAE: Nausea, Mild: 83 (22.6) n (%)
  TEAE: Vomiting, Mild: 44 (12.0) n (%)
[2]; highest severity Moderate
  Subjects with at Least One TEAE, Moderate: 71 (19.3) n (%)
  TEAE: Abdominal Pain Upper, Moderate: 1 (0.3) n (%)
  TEAE: Abdominal Pain, Moderate: 3 (0.8) n (%)
  TEAE: Diarrhea, Moderate: 2 (0.5) n (%)
  TEAE: Gastrointestinal Disorders (SOC), Moderate: 39 (10.6) n (%)
  TEAE: Nausea, Moderate: 28 (7.6) n (%)
  TEAE: Vomiting, Moderate: 18 (4.9) n (%)
[2]; highest severity Severe
  Subjects with at Least One TEAE, Severe: 6 (1.6) n (%)
  TEAE: Abdominal Pain Upper, Severe: 0 n (%)
  TEAE: Abdominal Pain, Severe: 0 n (%)
  TEAE: Diarrhea, Severe: 0 n (%)
  TEAE: Gastrointestinal Disorders (SOC), Severe: 0 n (%)
  TEAE: Nausea, Severe: 0 n (%)
  TEAE: Vomiting, Severe: 0 n (%)
[2]; most frequent (≥2%) TEAEs table
  Subjects with at Least One TEAE: 197 (53.5) n (%)
